TGI and GI50 data for 22 molecules are collected here from PubChem BioAssay (NCI).

Some test systems named below: SK-OV-3 ovarian; NCI-H460 lung; OVCAR-5 ovarian; T-47D breast; DU-145 prostate; U251 CNS; A498 renal; SF-539 CNS; OVCAR-8 ovarian; M19-MEL melanoma.
What all share (test): DTP human tumour cell line panel, 48 h

Molecules are shown by their SMILES. Several values for one entry are separate records, joined by “and”; a condition that tells them apart may be missing. Identical values can stand only once.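 Step 1: Grow cells in 96-well plates. Step 2: Expose to compound for 48 hours at 5 concentrations. Step 3: Interpolate endpoints linearly; if unreached, use highest concentration. GI50: concentration for 50% inhibition of growth. TGI: total growth inhibition.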

Turning to `CC(C)CNC1=NCC(C)S1` (configuration not stated), the total growth inhibition concentration (TGI) with SK-OV-3 ovarian, in the assay with NCI-H460 lung, in the assay on OVCAR-5 ovarian, in the assay on T-47D breast, with DU-145 prostate and in the assay on U251 CNS was over 100 µM in each case. Further, the TGI with A498 renal and in the assay on SF-539 CNS was over 100 µM each time.
Consider `Cc1[nH]c(C(=O)Nc2ccc(C(=O)NCCN)cc2OC(C)C)c(Cl)c1Cl`, for which the GI50 with OVCAR-8 ovarian was 2.23 µM; in the assay with OVCAR-5 ovarian, 1.67 µM; with DU-145 prostate it was 1.69 µM; in the assay with SF-539 CNS, 1.68 µM. Further, the TGI with OVCAR-8 ovarian was found to be 5.43 µM; with OVCAR-5 ovarian, 3.11 µM; in the assay on DU-145 prostate, 3.14 µM; in the assay on SF-539 CNS, 3.14 µM.
With `C=C(CN(C)C)C(=O)c1ccccc1OC`, the TGI with SK-OV-3 ovarian is over 66.1 µM; in the assay on NCI-H460 lung it was 63.2 µM; in the assay on OVCAR-8 ovarian it was 50 µM; in the assay on OVCAR-5 ovarian, 38.5 µM; with T-47D breast it was 38.5 µM; in the assay on DU-145 prostate it was over 64 µM. Moreover, the TGI in the assay with U251 CNS was determined as 66.3 µM; in the assay with M19-MEL melanoma, 32.4 µM; in the assay on A498 renal it was 64 µM; in the assay on SF-539 CNS, 31.5 µM.
As to `COc1cc(/C=N/NC(=O)c2c(Cl)c(Cl)c(Cl)c(Cl)c2-c2nc3ccc(C(=O)c4ccccc4)cc3[nH]2)ccc1O`, the TGI in the assay on SK-OV-3 ovarian, in the assay on OVCAR-8 ovarian, in the assay on OVCAR-5 ovarian, in the assay on T-47D breast, in the assay with DU-145 prostate and in the assay on U251 CNS was over 100 µM each time. Moreover, the TGI in the assay on SF-539 CNS is over 100 µM.
In the case of `O=S(=O)(c1ccccc1)C1CC(c2nc3ccccc3[nH]2)=NO1` (configuration not stated), the total growth inhibition concentration (TGI) in the assay on SK-OV-3 ovarian, with NCI-H460 lung, in the assay on OVCAR-8 ovarian, in the assay on OVCAR-5 ovarian, with T-47D breast and with DU-145 prostate was over 100 µM throughout. The TGI in the assay on U251 CNS, in the assay on A498 renal and with SF-539 CNS was over 100 µM each time.
In the case of `C[N+]1(C(CO)Cc2c[nH]c3ccccc23)Cc2ccccc2C1` (configuration not stated), the TGI with SK-OV-3 ovarian, with NCI-H460 lung, in the assay on OVCAR-8 ovarian, in the assay with OVCAR-5 ovarian, in the assay with T-47D breast and in the assay with DU-145 prostate was over 100 µM throughout. The TGI in the assay on U251 CNS and with A498 renal was over 100 µM each time.
With `CC(C)CCN(CCC(C)C)CC(=O)Nc1ccc(S(=O)(=O)c2ccc(NC(=O)CN(CCC(C)C)CCC(C)C)cc2)cc1`, the GI50 is 28 µM in the assay with SK-OV-3 ovarian; 2070 nM in the assay on NCI-H460 lung; 2.89 µM with OVCAR-8 ovarian; 2.07 µM in the assay with OVCAR-5 ovarian; 1.4 µM with T-47D breast; 2.29 µM in the assay on DU-145 prostate. The GI50 with A498 renal is 16.5 µM; with SF-539 CNS, 1.57 µM. Moreover, the TGI is 88 µM with SK-OV-3 ovarian; 6.1 µM in the assay with NCI-H460 lung; over 100 µM in the assay with OVCAR-8 ovarian; 5.46 µM in the assay on OVCAR-5 ovarian; 4.29 µM in the assay with T-47D breast; 6.16 µM in the assay on DU-145 prostate. Also, the values for the TGI with A498 renal and in the assay on SF-539 CNS were 38.8 µM and 3.07 µM, respectively.
On to `C[C@]12CC[C@H]3[C@@H](CC=C4C[C@@H](O)CC[C@@]43C)[C@@H]1C/C(=C\c1ccncc1)[C@@H]2O`, for which the TGI with SK-OV-3 ovarian is 79.6 µM; in the assay with NCI-H460 lung, 42.2 µM; with OVCAR-8 ovarian it was 39.8 µM; with OVCAR-5 ovarian, over 100 µM; in the assay with T-47D breast it was 42.5 µM; with DU-145 prostate it was 49.6 µM. Further, the TGI in the assay on U251 CNS turned out to be 33.9 µM; in the assay on A498 renal, 28.3 µM; in the assay on SF-539 CNS, 45.9 µM.
Turning to `Cc1ncc(C(=O)Nc2ccc(CN3CCN(C)CC3)c(C(F)(F)F)c2)cc1C#Cc1cnc(N)c2ccc(C#N)cc12`, the GI50 is 0.02 µM in the assay with SK-OV-3 ovarian, 0.114 µM in the assay with T-47D breast, 0.0157 µM with DU-145 prostate and 0.0796 µM in the assay on SF-539 CNS. In addition, the TGI in the assay with SK-OV-3 ovarian is over 100 µM; in the assay with T-47D breast, over 100 µM; in the assay on DU-145 prostate, 2.34 µM; in the assay with SF-539 CNS, 1.45 µM.
Regarding `O=C1Nc2cccc(Cl)c2/C1=C\c1cccnc1`, the TGI stood at 15.3 µM with SK-OV-3 ovarian; 36.5 µM in the assay on NCI-H460 lung; 20.1 µM in the assay with OVCAR-8 ovarian; 16.1 µM in the assay with OVCAR-5 ovarian; 16.6 µM with T-47D breast; 35.9 µM in the assay on DU-145 prostate. In addition, the TGI with U251 CNS was determined as 35.2 µM; in the assay on A498 renal, 37.1 µM; with SF-539 CNS, 39.7 µM.
In the case of `Cc1csc2nc(-c3cccc([N+](=O)[O-])c3)c(/C=N/N=C(N)N)n12`, the TGI in the assay on SK-OV-3 ovarian was determined as 3.33 µM; with NCI-H460 lung, 9.61 µM; with OVCAR-8 ovarian, 3.2 µM; in the assay with OVCAR-5 ovarian, 2.98 µM; in the assay on T-47D breast, 8.06 µM; with DU-145 prostate it was 4.28 µM. Moreover, the TGI in the assay on U251 CNS was found to be 3.4 µM; in the assay with A498 renal it was 2.92 µM; with SF-539 CNS, 4.71 µM.
`c1ccc(CSC(SCc2ccccc2)c2cccc3ccccc23)cc1`: the TGI in the assay with SK-OV-3 ovarian, with NCI-H460 lung, with OVCAR-8 ovarian, in the assay on OVCAR-5 ovarian, in the assay on T-47D breast and in the assay with DU-145 prostate was over 10 µM throughout. Besides, the TGI in the assay on U251 CNS, with A498 renal and with SF-539 CNS was over 10 µM throughout.
For the molecule `COC(=O)c1c(O)ccc2c1c1c(n2CCc2ccc(OC)c(OC)c2)C(=O)c2ccccc2C1=O`, the concentration for total growth inhibition (TGI) was 38.6 µM with SK-OV-3 ovarian; 19.5 µM in the assay on NCI-H460 lung; 32.6 µM in the assay with OVCAR-8 ovarian; 34.1 µM with OVCAR-5 ovarian; 31.9 µM with T-47D breast; 29.5 µM in the assay with DU-145 prostate. Also, the figures for the concentration for total growth inhibition (TGI) in the assay on U251 CNS, with A498 renal and with SF-539 CNS were 43.2 µM, 32.9 µM and 28.1 µM, respectively.
As for `N#CC1(CCCI)CCCC1`, the TGI in the assay with SK-OV-3 ovarian was over 100 µM; in the assay with NCI-H460 lung, 25.9 µM; in the assay on OVCAR-8 ovarian, over 100 µM; with OVCAR-5 ovarian, 51.6 µM; in the assay with U251 CNS it was 26.3 µM; in the assay with M19-MEL melanoma, 45 µM. Besides, the TGI was over 100 µM with A498 renal and 45.1 µM with SF-539 CNS.
Take `CC[C@@]1(O)CC(OC2CC(N3CCOCC3)C(O)C(C)O2)c2c(O)c3c(c(O)c2[C@H]1O)C(=O)c1cccc(O)c1C3=O` (some centres not stated): the GI50 is 0.0963 µM in the assay on SK-OV-3 ovarian; 0.052 nM in the assay on NCI-H460 lung; 0.0285 µM with OVCAR-8 ovarian; 0.192 µM in the assay on OVCAR-5 ovarian; 0.0287 µM in the assay on U251 CNS; 0.0716 µM in the assay with M19-MEL melanoma. Further, the 50% growth inhibitory concentration (GI50) in the assay with A498 renal was 0.07 µM; in the assay with SF-539 CNS it was 0.0233 µM. For the same molecule, the TGI is 1.07 µM and 1.67 µM with SK-OV-3 ovarian; 0.554 µM and 0.113 µM in the assay with NCI-H460 lung; 1.07 µM and 5.5 µM in the assay on OVCAR-8 ovarian; 2.17 µM and 0.821 µM in the assay with OVCAR-5 ovarian; 3.35 µM in the assay with T-47D breast; 0.852 µM in the assay on DU-145 prostate. Further, the TGI was 1.73 µM and 0.348 µM in the assay with U251 CNS; 0.981 µM and 2.14 µM with M19-MEL melanoma; 0.634 µM and 0.229 µM in the assay on A498 renal; 1.07 µM and 0.71 µM with SF-539 CNS.
For the molecule `CC(=O)OC(C(=O)O)C(OC(C)=O)C(OC(C)=O)C(OC(C)=O)C(=O)O` (configuration not stated), the TGI with SK-OV-3 ovarian, in the assay with NCI-H460 lung, in the assay on OVCAR-8 ovarian, in the assay on OVCAR-5 ovarian, in the assay with U251 CNS and in the assay with A498 renal was over 100 µM throughout. In addition, the TGI in the assay with SF-539 CNS was over 100 µM.
With `O=C1OC(c2ccc(O)cc2)(c2ccc(O)cc2)c2ccc(Cl)c3cccc1c23` (tested in a mixture with another compound), the TGI in the assay on SK-OV-3 ovarian was over 75 µM; in the assay on NCI-H460 lung, 23.7 µM; in the assay on OVCAR-8 ovarian it was 38.9 µM; with OVCAR-5 ovarian it was 20.8 µM; with DU-145 prostate it was over 75 µM; in the assay on U251 CNS, 25.2 µM. Moreover, the results for the TGI in the assay with A498 renal and in the assay with SF-539 CNS were over 75 µM and 20.8 µM, respectively.
With `O=C(O)c1cc2ccccc2c(N=Nc2ccc(S(=O)(=O)Nc3ccccn3)cc2)c1O`, the TGI in the assay with SK-OV-3 ovarian, in the assay on NCI-H460 lung, in the assay on OVCAR-8 ovarian, with OVCAR-5 ovarian, with T-47D breast and in the assay with DU-145 prostate was over 100 µM each time. In addition, the TGI with U251 CNS and in the assay with SF-539 CNS was over 100 µM in each case.
As to `c1ccc(/C(=N\Nc2nc3ccccc3[nH]2)c2ccccn2)cc1`, the TGI is 2.02 µM in the assay with SK-OV-3 ovarian; 13.1 µM with NCI-H460 lung; 1.05 µM in the assay on OVCAR-8 ovarian; 4.47 µM in the assay with OVCAR-5 ovarian; 27 µM with T-47D breast; over 100 µM with DU-145 prostate. For the same molecule, the TGI in the assay with U251 CNS is over 28.5 µM; in the assay on A498 renal it was 5.14 µM; with SF-539 CNS, 1.64 µM.
Regarding `O=C(CSCC(=O)N/N=C\c1ccc(F)cc1F)N/N=C\c1ccc(F)cc1F`, the TGI in the assay with SK-OV-3 ovarian, in the assay with NCI-H460 lung, with OVCAR-8 ovarian, in the assay on T-47D breast, with DU-145 prostate and with U251 CNS was over 100 µM throughout. Besides, the TGI in the assay on A498 renal and in the assay on SF-539 CNS was over 100 µM in each case.
`CCCCCCCCCCCCc1ccc(S(=O)(=O)O)cc1.[Cu+2]`: the TGI in the assay with SK-OV-3 ovarian is 22.8 µM; in the assay on NCI-H460 lung, over 100 µM; in the assay on OVCAR-8 ovarian, over 100 µM; in the assay with OVCAR-5 ovarian it was over 100 µM; in the assay with T-47D breast it was over 100 µM; in the assay with DU-145 prostate, over 100 µM. Besides, the TGI with U251 CNS, in the assay on A498 renal and in the assay with SF-539 CNS was over 100 µM throughout.
For `COc1ccccc1C#C/C=C\C#Cc1ccccc1C#N`, the TGI in the assay on SK-OV-3 ovarian is over 100 µM; in the assay on NCI-H460 lung it was over 100 µM; in the assay on OVCAR-8 ovarian, 34.4 µM; in the assay with OVCAR-5 ovarian it was over 100 µM; with T-47D breast, over 100 µM; in the assay with DU-145 prostate, over 100 µM. Further, the TGI was over 100 µM with U251 CNS and 82.7 µM in the assay on SF-539 CNS.
